Measured values published in patent publication US8524692B2, “Ocular compositions containing dioleoylphosphatidylglycerol and uses thereof” (Georgia Health Sciences University Research Institute, Inc., priority 2010, dated 2013).

Columns and labels:
[1] = tested on: keratinocytes; assay: [3H]Thymidine incorporation into DNA in keratinocytes; format: cell-based; details: for inhibition of proliferation in rapidly dividing keratinocytes / promotion of proliferation in slowly dividing keratinocytes: 24 hours, PG species prepared by bath sonication, compared with egg phosphatidylglycerol
Description: Keratinocytes were treated for 24 hours with the indicated concentrations of different phosphatidylglycerol species, prepared via bath sonication of phospholipid in serum-free keratinocyte medium. [^3H]Thymidine incorporation into DNA was then determined in duplicate and averaged. All data were transformed prior to analyses to improve assumptions of normality and additivity for the models to be used. Experiments were grouped that had different responses to egg phosphatidylglycerol using finite mixture regression models and the flexmix package in R (1). This method clusters each experiment by the regression fit between In(CPM) and In(concentration), grouping cultures with similar regression lines in the same cluster. The number of clusters was determined using the Bayesian information criterion (BIC). A mixed model analysis of variance was used, conducted using the Proc Mixed procedure in SAS 9.13, separately for each of the grouped clusters to determine how the different phosphatidylglycerol species affected the relationship between cell proliferation and phosphatidylglycerol concentration. The model used for this analysis of variance included phosphatidylglycerol species as a fixed effect that potentially interacted with In(concentration), and random coefficients for each culture/experiment. The number of experiments segregating into each cluster are indicated and *p<0.05 versus the response to egg phosphatidylglycerol liposomes.
[^3H]Thymidine Incorporation Assays: [^3H]Thymidine incorporation into DNA is measured as described (62).
The effect of providing phosphatidylglycerol directly to keratinocytes in the form of liposomes was examined, since direct provision of phosphatidylglycerol itself should also trigger early differentiation. […] The egg phosphatidylglycerol used in these experiments is composed primarily of the dioleoyl and dipalmitoyl species; therefore, that there is no effect of dipalmitoyl-PP on DNA synthesis was also determined. On the other hand, if phosphatidylglycerol liposomes are applied to keratinocytes with decreased proliferative capacity, presumably as the result of contact inhibition (and as indicated by reduced [3H]thymidine incorporation into DNA under control conditions), DNA synthesis is stimulated in a dose-dependent manner, with a half-maximal effect at a concentration of approximately 35_g/mL and a maximal stimulation at 100 μg/mL.

[2] = tested on: keratinocytes; details: cited from earlier work
[3] = tested on: PLD; details: acute stimulation, radiolabeled phosphatidylethanol production; cited from earlier work
[4] = tested on: keratinocytes; details: concentrations from 0.1 to 1%; cited from earlier work
[5] = tested on: transformed human corneal epithelial cells; assay: Scratch wound closure assay in corneal epithelial cells; format: cell-based; details: 24 hours
Description: SV40-immortalized human corneal epithelial cells were cultured in a 1:1 mixture of defined keratinocyte serum free (dKSF) medium (Gibco) and minimum essential medium (Cellgro) until confluent. A pipet tip was then used to create a scratch wound in the confluent monolayer. Cells were rinsed with PBS to remove unattached and damaged cells and photographed under the microscope. The medium was replaced with dKSF containing the indicated additions (Ca corresponds to 1 mM Ca^2+). Cells were incubated for 24 hours and photographed again. Percent wound closure was calculated as the change in width of the scratch wound compared to the size of the initial wound and was expressed relative to the control (medium with no additions containing 90 μM Ca^2+); *p<0.05; **p<0.01 versus the control (n=3).
FIGS. 8A-8B show the effect of egg phosphatidylglycerol and dioleoylphosphatidylglycerol on wound closure in transformed human corneal epithelial cells. SV40-immortalized human corneal epithelial cells were cultured in a 1:1 mixture of defined keratinocyte serum free (dKSF) medium (Gibco) and minimum essential medium (Cellgro) until confluent. […] Percent wound closure was calculated as the change in width of the scratch wound compared to the size of the initial wound and was expressed relative to the control (medium with no additions); *p<0.05 versus the control (n=3). […]

[6] = tested on: SV40-immortalized human corneal epithelial cells; assay: [3H]Thymidine incorporation into DNA in corneal epithelial cells; format: cell-based; details: 1 mM calcium versus control 90 μM, 24 hours
Description: [^3H]Thymidine incorporation into DNA was then determined. Values represent the means±SEM of 3 separate experiments performed in duplicate; *p<0.05, **p<0.01 versus the control value.
SV40-immortalized human corneal epithelial cells were cultured in a 1:1 mixture of defined keratinocyte serum free (dKSF) medium (Gibco) and minimum essential medium (Cellgro) until approximately 70% confluent. […] [^3H]Thymidine incorporation into DNA was then determined. Values represent the means±SEM of 4 separate experiments performed in duplicate; *p<0.01 versus the control value.
The cells are cultured in defined keratinocyte serum-free (dKSF) medium (Gibco) and passaged following trypsinization from the culture dish.

Q: Which “inhibition of proliferation in rapidly dividing keratinocytes” value (“inhibition of proliferation” below) [1] does the source give for Palmitoyl, arachidonyl-PG here?
A: particularly effective at inhibiting proliferation

Q: With `C=C1/C(=C\C=C2/CCC[C@]3(C)[C@@H]([C@H](C)CCCC(C)(C)O)CC[C@@H]23)C[C@@H](O)C[C@@H]1O` [1,25-dihydroxyvitamin D3] as the molecule, how does the “radiolabeled PG formation” value ([2]; 250 nM, 24 hours) read?
A: a decrease

Q: With palmitoyl, linoleoyl-PG as the molecule, how does the “inhibition of proliferation” value [1] read?
A: particularly effective at inhibiting proliferation

Q: For `CCCCCCCCCCCCCC(=O)O[C@@H]1[C@@H](C)[C@@]2(O)[C@@H](C=C(CO)C[C@]3(O)C(=O)C(C)=C[C@@H]23)[C@H]2C(C)(C)[C@]12OC(C)=O` [TPA], which PLD activity [3] is on record?
A: activates PLD

Q: What about the radiolabeled phosphatidylglycerol levels ([2]; acute stimulation) of the same molecule?
A: no increase

Q: For `CCCCCCCC/C=C\CCCCCCCC(=O)O[C@H](COC(=O)CCCCCCCCCCCCCCC)COP(=O)(O)OCC(O)CO` (stereo partly drawn) [Palmitoyl, oleoyl-PG, palmitoyloleoylphosphatidylglycerol], which “promotion of proliferation in slowly dividing keratinocytes” value [1] is on record?
A: especially effective proproliferative

Q: Which “effect on DNA synthesis ([3H]thymidine incorporation) in keratinocytes” value (shortened to “effect on DNA synthesis”) [4] does the source give for `OC[C@@H](O)[C@@H](O)[C@H](O)[C@@H](O)CO` [sorbitol] here?
A: little or no effect

Q: With `CCCCCCCCCCCCCCCC(=O)OC[C@H](COP(=O)(O)OCCC)OC(=O)CCCCCCCCCCCCCCC` [dipalmitoyl-PP] as the molecule, how does the “effect of liposomes on DNA synthesis in highly proliferative keratinocytes” value ([1]; liposomes) read?
A: no effect

Q: Which “effect on DNA synthesis” value [4] does the source give for `OC[C@@H](O)[C@H](O)[C@@H](O)CO` [xylitol] here?
A: little or no effect

Q: With `CCCCCCCC/C=C\CCCCCCCC(=O)OC[C@H](COP(=O)(O)OCC(O)CO)OC(=O)CCCCCCC/C=C\CCCCCCCC` (stereo partly drawn) [dioleoylphosphatidylglycerol] as the molecule, how does the “promotion of proliferation in slowly dividing keratinocytes” value [1] read?
A: especially effective proproliferative

Q: And the wound closure ([5]; 50 mg/ml liposomes, relative to control)?
A: significantly enhanced wound closure

Q: Which wound closure ([5]; 0.05% glycerol and calcium (1 mM Ca2+)) does the source give for `OCC(O)CO` [glycerol] here?
A: significantly enhanced wound closure

Q: What about the “inhibition of DNA synthesis together with elevated extracellular calcium” value [6] of the same molecule?
A: more efficiently inhibit DNA synthesis than either agent alone

Q: What about the “effect on DNA synthesis” value [4] of the same molecule?
A: inhibited DNA synthesis

Q: For `CCCCC/C=C\C/C=C\CCCCCCCC(=O)OC[C@H](COP(=O)(O)OCC(O)CO)OC(=O)CCCCCCC/C=C\C/C=C\CCCCC` (stereo partly drawn) [dilinoleoyl-PG], which “inhibition of proliferation” value [1] is on record?
A: particularly effective at inhibiting proliferation
